Legend:
AGS = assay: MTT assay; type: cell-based; conditions: Homo sapiens, 24 h of treatment
Outline: (§1)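 Cells were exposed to compounds at 0.625–40.0 μM (seven concentrations, triplicate) for 24 h, then incubated with MTT for 2 h at 37 °C. After lysis in acidic SDS/DMF buffer (pH 4.7), absorbance was read at 570 nm.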

DLD-1 = assay: MTT assay; type: cell-based; conditions: Homo sapiens; DLD-1, 24 h of treatment
Outline: as §1

HCC-1954 = assay: MTT assay; type: cell-based; conditions: Homo sapiens, HCC1954; HCC-1954, 24 h of treatment
Outline: as §1

HT-29 = assay: MTT assay; type: cell-based; conditions: Homo sapiens; HT-29, 24 h of treatment
Outline: as §1

Jurkat = assay: MTT assay; type: cell-based; conditions: Homo sapiens, 24 h of treatment
Outline: as §1

K562 = assay: MTT assay; type: cell-based; conditions: Homo sapiens; K562, 24 h of treatment
Outline: as §1

MCF-7 = assay: MTT assay; type: cell-based; conditions: Homo sapiens, MCF7; MCF-7, 24 h of treatment
Outline: as §1

RPMI 8866 = assay: MTT assay; type: cell-based; conditions: Homo sapiens; RPMI 8866, 24 h of treatment
Outline: as §1

COLO 205 = conditions: COLO 205, 48 h
HT29 = conditions: HT29, 48 h
OVCAR-3 = conditions: OVCAR-3, 48 h
SK-OV-3 = conditions: SK-OV-3, 48 h
BT-549 [1] = conditions: BT-549, 48 h
K-562 = assay: cells; conditions: Homo sapiens, K562, 48 h; for GI50: K-562, 48 h; for CC50: read-out: LC50
HCT-116 = assay: cells; conditions: Homo sapiens, HCT-116, 48 h
SK-MEL-28 = assay: cells; conditions: Homo sapiens, SK-MEL-28, 48 h; for CC50: read-out: LC50, SK-MEL-28, 48 h
SK-MEL-5 = assay: cells; conditions: Homo sapiens, SK-MEL-5, 48 h; for CC50: read-out: LC50, SK-MEL-5, 48 h
UACC-257 = assay: cells; conditions: Homo sapiens, UACC-257, 48 h; for CC50: read-out: LC50, UACC-257, 48 h
OVCAR-4 = assay: cells; conditions: Homo sapiens, OVCAR-4, 48 h; for CC50: read-out: LC50, OVCAR-4, 48 h
786-0 = assay: cells; conditions: Homo sapiens, 786-0, 48 h
BT-549 [2] = assay: cells; conditions: Homo sapiens, BT-549, 48 h; for CC50: read-out: LC50, BT-549, 48 h
[3] = tested on: panel of 60 cancer cell lines; assay: cells; conditions: Homo sapiens, read-out: MG_MID GI50
HL-60(TB) = assay: NCI-60 SRB screen; conditions: for TGI / GI50: HL-60(TB), 48 h; for GI50 / CC50: Homo sapiens, HL-60, 48 h; for CC50: read-out: LC50, HL-60(TB), 48 h
A549/ATCC = assay: NCI-60 SRB screen; conditions: for TGI: 48 h; for GI50: Homo sapiens, A549, 48 h
HOP-62 = assay: NCI-60 SRB screen; conditions: HOP-62, 48 h; for GI50: Homo sapiens
KM12 = assay: NCI-60 SRB screen; conditions: KM12, 48 h; for GI50: Homo sapiens
SW-620 = assay: NCI-60 SRB screen; conditions: SW-620, 48 h; for GI50: Homo sapiens
M14 = assay: NCI-60 SRB screen; conditions: M14, 48 h; for GI50 / CC50: Homo sapiens; for CC50: read-out: LC50, M14, 48 h
UACC-62 = assay: NCI-60 SRB screen; conditions: UACC-62, 48 h; for GI50 / CC50: Homo sapiens; for CC50: read-out: LC50, UACC-62, 48 h
IGROV1 = assay: NCI-60 SRB screen; conditions: for GI50 / CC50: Homo sapiens, IGROV-1, 48 h; for GI50 / TGI: IGROV1, 48 h; for CC50: read-out: LC50, IGROV1, 48 h

Structure (SMILES): CCCC(C(=O)O)N1C(=O)/C(=C/C=C/c2ccc([N+](=O)[O-])o2)SC1=S (stereo not drawn) [4b, 2-((Z)-5-((E)-3-(5-Nitrofuran-2-yl)allylidene)-4-oxo-2-thioxothiazolidin-3-yl)pentanoic acid]
- IC50 (AGS): 6.54 µM
- IC50 (DLD-1): 7.61 µM
- IC50 (HCC-1954): 7.07 µM
- IC50 (HT-29): 13.2 µM
- IC50 (Jurkat): 5.85 µM
- IC50 (K562): 16.1 µM
- IC50 (MCF-7): 5.87 µM
- IC50 (RPMI 8866): 19.6 µM
- TGI (COLO 205): 3.60 µM
- TGI (HT29): 3.81 µM
- TGI (OVCAR-3): 5.39 µM
- TGI (SK-OV-3): 18.7 µM
- TGI (BT-549 [1]): 3.37 µM
- GI50 (K-562): 2770 nM
- CC50 (K-562): > 100 µM
- GI50 (HCT-116): 1820 nM
- GI50 (SK-MEL-28): 1760 nM
- CC50 (SK-MEL-28): 6.98 µM
- GI50 (SK-MEL-5): 1470 nM
- CC50 (SK-MEL-5): 5.31 µM
- GI50 (UACC-257): 1960 nM
- CC50 (UACC-257): 14.8 µM
- GI50 (OVCAR-4): 6.03 µM
- CC50 (OVCAR-4): 44.3 µM
- GI50 (786-0): 3.71 µM
- GI50 (BT-549 [2]): 1670 nM
- CC50 (BT-549 [2]): 6.77 µM
- GI50 [3]: 2170 nM
- TGI (HL-60(TB)): 6.43 µM
- GI50 (HL-60(TB)): 2170 nM
- CC50 (HL-60(TB)): > 100 µM
- TGI (A549/ATCC): 5.40 µM
- GI50 (A549/ATCC): 2220 nM
- TGI (HOP-62): 5.43 µM
- GI50 (HOP-62): 2230 nM
- GI50 (KM12): 1380 nM
- TGI (KM12): 2.78 µM
- GI50 (SW-620): 1550 nM
- TGI (SW-620): 3.08 µM
- GI50 (M14): 1830 nM
- CC50 (M14): 7.74 µM
- TGI (M14): 3.77 µM
- GI50 (UACC-62): 1500 nM
- CC50 (UACC-62): 5.9 µM
- TGI (UACC-62): 2.98 µM
- GI50 (IGROV1): 1940 nM
- CC50 (IGROV1): 7.75 µM
- TGI (IGROV1): 3.87 µM

Structure (SMILES): CCCCC(C(=O)O)N1C(=O)/C(=C/C=C/c2ccc([N+](=O)[O-])o2)SC1=S (stereo not drawn) [6b, 2-((Z)-5-((E)-3-(5-nitrofuran-2-yl)allylidene)-4-oxo-2-thioxothiazolidin-3-yl)hexanoic acid]
- IC50 (AGS): 3.99 µM
- IC50 (DLD-1): 4.58 µM
- IC50 (HCC-1954): 4.18 µM
- IC50 (HT-29): 8.01 µM
- IC50 (Jurkat): 13.9 µM
- IC50 (K562): 36.2 µM
- IC50 (MCF-7): 6.39 µM
- IC50 (RPMI 8866): 15.2 µM
- TGI (COLO 205): 3.66 µM
- TGI (HT29): 3.71 µM
- TGI (OVCAR-3): 5.33 µM
- TGI (SK-OV-3): 19.4 µM
- TGI (BT-549 [1]): 3.12 µM
- GI50 (K-562): 2600 nM
- CC50 (K-562): > 100 µM
- GI50 (HCT-116): 1730 nM
- GI50 (SK-MEL-28): 1910 nM
- CC50 (SK-MEL-28): 7.29 µM
- GI50 (SK-MEL-5): 1450 nM
- CC50 (SK-MEL-5): 5.29 µM
- GI50 (UACC-257): 1930 nM
- CC50 (UACC-257): 9.62 µM
- GI50 (OVCAR-4): 6.12 µM
- CC50 (OVCAR-4): 44.5 µM
- GI50 (786-0): 3.11 µM
- GI50 (BT-549 [2]): 1490 nM
- CC50 (BT-549 [2]): 6.55 µM
- GI50 [3]: 2300 nM
- TGI (HL-60(TB)): 10.1 µM
- GI50 (HL-60(TB)): 2680 nM
- CC50 (HL-60(TB)): > 100 µM
- TGI (A549/ATCC): 5.86 µM
- GI50 (A549/ATCC): 2330 nM
- TGI (HOP-62): 5.20 µM
- GI50 (HOP-62): 2250 nM
- GI50 (KM12): 1630 nM
- TGI (KM12): 3.24 µM
- GI50 (SW-620): 1800 nM
- TGI (SW-620): 3.38 µM
- GI50 (M14): 1830 nM
- CC50 (M14): 7.66 µM
- TGI (M14): 3.75 µM
- GI50 (UACC-62): 1380 nM
- CC50 (UACC-62): 5.61 µM
- TGI (UACC-62): 2.78 µM
- GI50 (IGROV1): 2160 nM
- CC50 (IGROV1): 18 µM
- TGI (IGROV1): 4.86 µM

Reference: article PMC12655351, “Synthesis and Anticancer Activity Evaluation of New 5-((5-Nitrofuran-2-yl)allylidene)-2-thioxo-4-thiazolidinones” (Pharmaceuticals, 2025)
